Measurements from US20150157021A1, “NEW ANTIFUNGAL COMPOSITIONS” (DSM IP ASSETS B.V., priority 2012, published 2015).

Key:
Penicillium italicum = test: Treatment of wounded oranges inoculated with Penicillium italicum (Examples 7, 8); assay type: in vivo; details: 20° C., 250 ppm natamycin, 400 ppm boscalid or both
Experimental: Ten fresh, organic oranges were used per treatment. Each orange was soaked in a 180 ppm hypochlorite solution for 10 minutes, then rinsed thoroughly with fresh tap water and dried. The peel of each disinfected orange was wounded once using a cork borer according to the method described by de Lapeyre de Bellaire and Dubois (1987). Subsequently, each wound was inoculated with 10 μl of a Penicillium italicum suspension containing 1×10^5 of spores/ml. After incubation for 3 hours at 20° C., each wound and the orange peel area of 1 cm around the wound was treated with in total 150 μl of a freshly prepared aqueous antifungal composition comprising either 500 ppm natamycin (DSM Food Specialties, Delft, The Netherlands), 800 ppm boscalid or both. Each antifungal composition also comprised 3.2% (w/w) beeswax, 0.8% (w/w) glycerol, 0.7% (w/w) polyoxyethylene sorbitan monostearate (Tween 60), 0.2% (w/w) polyoxyethylene sorbitan monooleate (Tween 80), 0.05% (w/w) methylhydroxyethyl-cellulose (MHEC), 0.03% (w/w) anti-foaming agent, 0.02% (w/w) xanthan gum, 0.02% (w/w) citric acid, 0.01% (w/w) lactic acid and 0.01% potassium sorbate. A composition without natamycin or boscalid was used as control. […] The treated oranges were incubated in a closed box in the dark at 20° C. and assessed on mould growth during a 17-day incubation period. The antifungal activity (in %) of the individual and combined active ingredients was determined by calculating the reduction in mould growth observed on the oranges treated with the antifungal composition in comparison to the mould growth on the oranges treated with the control composition according to the Colby method (Colby, 1967) described in Example 5.
The experiment was conducted as described in Example 7, except for the fact that each wounded and inoculated orange was treated with 150 μl of a freshly prepared aqueous antifungal composition comprising either 250 ppm natamycin (DSM Food Specialties, Delft, The Netherlands), 400 ppm boscalid or both. The treated oranges were incubated in a closed box in the dark at 20° C. and assessed on mould growth during a 18-day incubation period. During incubation, the treated oranges were assessed on mould growth according to the method described in Example 7.

Botrytis cinerea = test: Treatment of wounded sweet peppers inoculated with Botrytis cinerea (Examples 9, 10); assay type: in vivo; details: 20° C., 400 ppm natamycin
Experimental: Ten fresh, organic sweet peppers were used per treatment. Each sweet pepper was soaked in a 180 ppm hypochlorite solution for 10 minutes, then rinsed thoroughly with fresh tap water and dried. The peel of each disinfected sweet pepper was wounded once using a cork borer according to the method described by de Lapeyre de Bellaire and Dubois (1987). Subsequently, each wound was inoculated with 10 μl of a Botrytis cinerea suspension containing 1×10^5 of spores/ml. After incubation for 3 hours at 20° C., each wound and the skin area of 0.5 cm around the wound was treated with in total 75 μl of a freshly prepared aqueous antifungal composition comprising either 400 ppm natamycin (DSM Food Specialties, Delft, The Netherlands), 600 ppm fenhexamid or both. Each antifungal composition also comprised 3.2% (w/w) beeswax, 0.8% (w/w) glycerol, 0.7% (w/w) polyoxyethylene sorbitan monostearate (Tween 60), 0.2% (w/w) polyoxyethylene sorbitan monooleate (Tween 80), 0.05% (w/w) methylhydroxyethyl-cellulose (MHEC), 0.03% (w/w) anti-foaming agent, 0.02% (w/w) xanthan gum, 0.02% (w/w) citric acid, 0.01% (w/w) lactic acid and 0.01% potassium sorbate. A composition without natamycin or fenhexamid was used as control.
The treated sweet peppers were incubated in a closed box in the dark at 20° C. and assessed on mould growth during a 26-day incubation period. The antifungal activity (in %) of the individual and combined active ingredients was determined by calculating the reduction in mould growth observed on the sweet peppers treated with the antifungal composition in comparison to the mould growth on the sweet peppers treated with the control composition according to the Colby method (Colby, 1967) described in Example 5.
The experiment was conducted as described in Example 9, except for the fact that each wounded and inoculated sweet pepper was treated with 75 μl of a freshly prepared aqueous antifungal composition comprising either 400 ppm natamycin (DSM Food Specialties, Delft, The Netherlands), 800 ppm carboxin or both. The treated sweet peppers were incubated in a closed box in the dark at 20° C. and assessed on mould growth during a 26-day incubation period. During incubation, the treated sweet peppers were assessed on mould growth according to the method described in Example 9.

In the case of C[C@@H]1C/C=C/C=C/C=C/C=C/[C@H](O[C@@H]2O[C@H](C)[C@@H](O)[C@H](N)[C@@H]2O)C[C@@H]2O[C@](O)(C[C@@H](O)C[C@H]3O[C@@H]3/C=C/C(=O)O1)C[C@H](O)[C@H]2C(=O)O [Natamycin, natamycin], the “Observed antifungal activity O (%)” value (Penicillium italicum; 11 days) is reported as 69%, the “Observed antifungal activity O (%)” value (Penicillium italicum; 12 days) is reported as 66% and the “Observed antifungal activity O (%)” value (Penicillium italicum; 13 days) is reported as 62%. For the same molecule, the “Observed antifungal activity O (%)” value (Penicillium italicum; 14 days) was 51%, the “Observed antifungal activity O (%)” value (Penicillium italicum; 17 days) was 39% and the “Observed antifungal activity O (%)” value (Penicillium italicum; 18 days) was 34%. The “Observed antifungal activity O (%)” value (Botrytis cinerea; 13-17 days, 600 ppm fenhexamid or both) was 86%, the “Observed antifungal activity O (%)” value (Botrytis cinerea; 17-19 days, 800 ppm carboxin or both) was 86% and the “Observed antifungal activity O (%)” value (Botrytis cinerea; 18-22 days, 600 ppm fenhexamid or both) was 86%. The “Observed antifungal activity O (%)” value (Botrytis cinerea; 20-21 days, 800 ppm carboxin or both) was 87%, the “Observed antifungal activity O (%)” value (Botrytis cinerea; 6 days, 600 ppm fenhexamid or both) was 95% and the “Observed antifungal activity O (%)” value (Botrytis cinerea; 8 days, 600 ppm fenhexamid or both) was 94%. The “Observed antifungal activity O (%)” value (Botrytis cinerea; 10 days, 600 ppm fenhexamid or both) was 89%, the “Observed antifungal activity O (%)” value (Botrytis cinerea; 11 days, 600 ppm fenhexamid or both) was 87% and the “Observed antifungal activity O (%)” value (Botrytis cinerea; 22 days, 800 ppm carboxin or both) was 85%. For the same molecule, the “Observed antifungal activity O (%)” value (Botrytis cinerea; 24 days, 600 ppm fenhexamid or both) was 83%, the “Observed antifungal activity O (%)” value (Botrytis cinerea; 24 days, 800 ppm carboxin or both) was 83% and the “Observed antifungal activity O (%)” value (Botrytis cinerea; 25 days, 600 ppm fenhexamid or both) was 82%. The “Observed antifungal activity O (%)” value (Botrytis cinerea; 25 days, 800 ppm carboxin or both) was 82%, the “Observed antifungal activity O (%)” value (Botrytis cinerea; 26 days, 600 ppm fenhexamid or both) was 79% and the “Observed antifungal activity O (%)” value (Botrytis cinerea; 26 days, 800 ppm carboxin or both) was 79%.
